Assay results from US20220073536A1 (Rigel Pharmaceuticals, Inc., priority 2003, published 2022).
Structures can show the parent of a compound that is named as a salt. Where two headings read alike, the source gives them in different places.

System: cultured human mast cells (CHMC)
Test: CHMC low cell density IgE activation: tryptase assay
Format: cell-based
How it was run: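 Fluorogenic readout of tryptase released into the supernatant (30 min substrate incubation, room temperature) measures degranulation. Cells were plated at low density (1000–1500/well, varied by donor) and triggered with anti-IgE for 30 min at 37 °C.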

[1] = low cell density CHMC, IgE activation, tryptase release, 8 pt, read-out: LD Tryptase, CHMC, IgE, 8 pt
[2] = Homo sapiens, Mast cell, low cell density CHMC, IgE activation, tryptase release, 8 pt, read-out: LD Tryptase, CHMC, IgE, 8 pt
[3] = low cell density CHMC, IgE activation, tryptase release, 3 pt, read-out: LD Tryptase, CHMC, IgE, 3 pt
[4] = Homo sapiens, Mast cell, low cell density CHMC, IgE activation, tryptase release, 3 pt, read-out: LD Tryptase, CHMC, IgE, 3 pt
[5] = Homo sapiens, Mast cell, low cell density, IgE activation, 3 pt, read-out: LD Tryptase, CHMC, IgE, 3 pt
[6] = Homo sapiens, Mast cell, low cell density, IgE activation, 8 pt, read-out: LD Tryptase, CHMC, IgE, 8 pt

CC1(C)Oc2ccc(Nc3nc(Nc4ccc5c(cnn5CCCNS(=O)(=O)C(F)(F)F)c4)ncc3F)nc2NC1=O [Compound 844, N4-(2,2-Dimethyl-3-oxo-4H-5-pyrid[1,4]oxazin-6-yl)-5-fluoro-N2-[1-[3-(N-trifluoromethylsulfonylamino)propyl]indazol-5-yl]-2,4-pyrimidinediamine]
IC50 [1]: > 10 µM

CCOP(=O)(NCCCn1ncc2cc(Nc3ncc(F)c(Nc4ccc(OC)c(Cl)c4)n3)ccc21)OCC [Compound 847, N4-(3-Chloro-4-methoxyphenyl)-N2-[1-(3-(diethylphosphonamido)propyl]indazol-5-yl]-5-fluoro-2,4-pyrimidinediamine]
IC50 [1]: < 10 µM

COc1ccc(Nc2nc(Nc3ccc4c(cnn4CCCNC(=O)C(C)(C)C)c3)ncc2F)cc1Cl [Compound 848, N4-(3-Chloro-4-methoxyphenyl)-5-fluoro-N2-[1-(3-pivalamidopropyl)indazol-5-yl]-2,4-pyrimidinediamine]
IC50 [2]: < 10 µM

CC(C)(C)C(=O)NCCCn1ncc2cc(Nc3ncc(F)c(Nc4ccc(Cl)c(Cl)c4)n3)ccc21 [Compound 849, N4-(3,4-Dichlorophenyl)-5-fluoro-N2-[1-(3-pivalamidopropyl)indazol-5-yl]-2,4-pyrimidinediamine]
IC50 [2]: < 10 µM

CC(C)(C)C(=O)NCCCn1ncc2cc(Nc3ncc(F)c(Nc4ccc5c(c4)NC(=O)C(C)(C)O5)n3)ccc21 [Compound 850, N4-(2,2-Dimethyl-3-oxo-4H-benz[1,4]oxazin-6-yl)-5-fluoro-N2-[1-(3-pivalamidopropyl)indazol-5-yl]-2,4-pyrimidinediamine]
IC50 [2]: < 10 µM

C[C@@H]1Oc2ccc(Nc3nc(Nc4ccc5c(cnn5CCCNC(=O)C(C)(C)C)c4)ncc3F)cc2NC1=O [Compound 851, 5-Fluoro-(S)-N4-(2-methyl-3-oxo-4H-benz[1,4]oxazin-6-yl)-N2-[1-(3-pivalamidopropyl)indazol-5-yl]-2,4-pyrimidinediamine]
IC50 [2]: < 10 µM

CC(C)(C)C(=O)NCCCn1ncc2cc(Nc3ncc(F)c(Nc4ccc5c(n4)NC(=O)C(C)(C)O5)n3)ccc21 [Compound 852, N4-(2,2-Dimethyl-3-oxo-4H-5-pyrido[1,4]oxazin-6-yl)-5-fluoro-N2-[1-(3-pivalamidopropyl)indazol-5-yl]-2,4-pyrimidinediamine]
IC50 [1]: < 10 µM

COc1ccc(Nc2nc(Nc3ccc4c(cnn4CCCN4C(=O)CCC4=O)c3)ncc2F)cc1Cl [Compound 853, N4-(3-Chloro-4-methoxyphenyl)-5-fluoro-N2-[1-[3-(N-succinimidopropyl)]indazol-5-yl]-2,4-pyrimidinediamine]
IC50 [3]: < 10 µM
IC50 [1]: < 10 µM

O=C1CCC(=O)N1CCCn1ncc2cc(Nc3ncc(F)c(Nc4ccc(Cl)c(Cl)c4)n3)ccc21 [Compound 854, N4-(3,4-Dichlorophenyl)-5-fluoro-N2-[1-[3-(N-succinimidopropyl)]indazol-5-yl]-2,4-pyrimidinediamine]
IC50 [3]: < 10 µM
IC50 [1]: > 10 µM

CC1(C)Oc2ccc(Nc3nc(Nc4ccc5c(cnn5CCCN5C(=O)CCC5=O)c4)ncc3F)cc2NC1=O [Compound 855, N4-(2,2-Dimethyl-3-oxo-4H-benz[1,4]oxazin-6-yl)-5-fluoro-N2-[1-[3-(N-succinimidopropyl)]indazol-5-yl]-2,4-pyrimidinediamine]
IC50 [3]: < 10 µM
IC50 [1]: < 10 µM

C[C@@H]1Oc2ccc(Nc3nc(Nc4ccc5c(cnn5CCCN5C(=O)CCC5=O)c4)ncc3F)cc2NC1=O [Compound 856, (S)-5-Fluoro-N4-(2-methyl-3-oxo-2H,4H-benz[1,4]oxazin-6-yl)-N2-[1-[3-(N-succinimidopropyl)]indazol-5-yl]-2,4-pyrimidinediamine]
IC50 [3]: < 10 µM
IC50 [1]: < 10 µM

CC1(C)Oc2ccc(Nc3nc(Nc4ccc5c(cnn5CCCN5C(=O)CCC5=O)c4)ncc3F)nc2NC1=O [Compound 857, N4-(2,2-Dimethyl-3-oxo-4H-5-pyrid[1,4]oxazin-6-yl)-5-fluoro-N2-[1-[3-(N-succinimidopropyl)]indazol-5-yl]-2,4-pyrimidinediamine]
IC50 [3]: < 10 µM
IC50 [1]: < 10 µM

COc1ccc(Nc2nc(Nc3ccc4c(cnn4CCCN4C(=O)CCCC4=O)c3)ncc2F)cc1Cl [Compound 858, N4-(3-Chloro-4-methoxyphenyl)-N2-[1-[3-(2,6-dioxopiperidino]propyl)indazol-5-yl]-5-fluoro-2,4-pyrimidinediamine]
IC50 [4]: < 10 µM
IC50 [2]: < 10 µM

O=C1CCCC(=O)N1CCCn1ncc2cc(Nc3ncc(F)c(Nc4ccc(Cl)c(Cl)c4)n3)ccc21 [Compound 859, N4-(3,4-Dichlorophenyl)-N2-[1-[3-(2,6-dioxopiperidino)propyl]indazol-5-yl]-5-fluoro-2,4-pyrimidinediamine]
IC50 [4]: < 10 µM
IC50 [2]: < 10 µM

CC1(C)Oc2ccc(Nc3nc(Nc4ccc5c(cnn5CCCN5C(=O)CCCC5=O)c4)ncc3F)cc2NC1=O [Compound 860, N4-(2,2-Dimethyl-3-oxo-4H-benz[1,4]oxazin-6-yl)-N2-[1-[3-(2,6-dioxopiperidino]propyl)indazol-5-yl]-5-fluoro-2,4-pyrimidinediamine]
IC50 [4]: < 10 µM
IC50 [2]: < 10 µM

C[C@@H]1Oc2ccc(Nc3nc(Nc4ccc5c(cnn5CCCN5C(=O)CCCC5=O)c4)ncc3F)cc2NC1=O [Compound 861, (S)-N2-[1-[3-(2,6-Dioxopiperidino]propyl)indazol-5-yl]-5-fluoro-N4-(2-methyl-3-oxo-2H,4H-benz[1,4]oxazin-6-yl)-2,4-pyrimidinediamine]
IC50 [4]: < 10 µM
IC50 [2]: < 10 µM

CC1(C)Oc2ccc(Nc3nc(Nc4ccc5c(cnn5CCCN5C(=O)CCCC5=O)c4)ncc3F)nc2NC1=O [Compound 862, N4-(2,2-Dimethyl-3-oxo-4H-5-pyrid[1,4]oxazin-6-yl)-N2-[1-[3-(2,6-dioxopiperidino]propyl)indazol-5-yl]-5-fluoro-2,4-pyrimidinediamine]
IC50 [3]: < 10 µM
IC50 [1]: < 10 µM

Fc1cnc(Nc2ccc3[nH]c(C(F)(F)F)nc3c2)nc1Nc1ccc(Cl)c(Cl)c1 [Compound 864, N4-(3,4-Dichlorophenyl)-5-fluoro-N2-(2-trifluoromethyl-1H-benzimidazol-5-yl)-2,4-pyrimidinediamine Ethanesulfonic Acid Salt]
IC50 (Homo sapiens, Mast cell, read-out: LD Tryptase, CHMC, IgE, 3 pt): > 10 µM

CCOCCCn1ncc2cc(Nc3ncc(F)c(Nc4ccc(OC)c(Cl)c4)n3)ccc21 [Compound 871, N4-(3-Chloro-4-methoxyphenyl)-N2-[1-(3-ethoxypropyl)indazol-5-yl]-5-fluoro-2,4-pyrimidinediamine]
IC50 [5]: < 10 µM
IC50 [6]: < 10 µM

CCOCCCn1ncc2cc(Nc3ncc(F)c(Nc4ccc(Cl)c(Cl)c4)n3)ccc21 [Compound 872, N4-(3,4-Dichlorophenyl)-N2-[1-(3-ethoxypropyl)indazol-5-yl]-5-fluoro-2,4-pyrimidinediamine]
IC50 [5]: < 10 µM

CCOCCCn1ncc2cc(Nc3ncc(F)c(Nc4ccc5c(c4)NC(=O)C(C)(C)O5)n3)ccc21 [Compound 873, N4-(2,2-Dimethyl-3-oxo-4H-benz[1,4]oxazin-6-yl)-N2-[1-(3-ethoxypropyl)indazol-5-yl]-5-fluoro-2,4-pyrimidinediamine]
IC50 [5]: < 10 µM
IC50 [6]: < 10 µM

CCOCCCn1ncc2cc(Nc3ncc(F)c(Nc4ccc5c(c4)NC(=O)[C@H](C)O5)n3)ccc21 [Compound 874, (S)-N2-[1-(3-Ethoxypropyl)indazol-5-yl]-5-fluoro-N4-(2-methyl-3-oxo-2H,4H-benz[1,4]oxazin-6-yl)-2,4-pyrimidinediamine]
IC50 [5]: < 10 µM
IC50 [6]: < 10 µM
